Patent US12404241B2 (Celgene Corporation, priority 2018, dated 2025)
Structures can show the parent of a compound that is named as a salt.

Molecular target: T1, AR (Homo sapiens, UniProt P10275)
T1 construct: endogenous in cells; host or cells: VCaP cells
T1 sequence (P10275 1-920): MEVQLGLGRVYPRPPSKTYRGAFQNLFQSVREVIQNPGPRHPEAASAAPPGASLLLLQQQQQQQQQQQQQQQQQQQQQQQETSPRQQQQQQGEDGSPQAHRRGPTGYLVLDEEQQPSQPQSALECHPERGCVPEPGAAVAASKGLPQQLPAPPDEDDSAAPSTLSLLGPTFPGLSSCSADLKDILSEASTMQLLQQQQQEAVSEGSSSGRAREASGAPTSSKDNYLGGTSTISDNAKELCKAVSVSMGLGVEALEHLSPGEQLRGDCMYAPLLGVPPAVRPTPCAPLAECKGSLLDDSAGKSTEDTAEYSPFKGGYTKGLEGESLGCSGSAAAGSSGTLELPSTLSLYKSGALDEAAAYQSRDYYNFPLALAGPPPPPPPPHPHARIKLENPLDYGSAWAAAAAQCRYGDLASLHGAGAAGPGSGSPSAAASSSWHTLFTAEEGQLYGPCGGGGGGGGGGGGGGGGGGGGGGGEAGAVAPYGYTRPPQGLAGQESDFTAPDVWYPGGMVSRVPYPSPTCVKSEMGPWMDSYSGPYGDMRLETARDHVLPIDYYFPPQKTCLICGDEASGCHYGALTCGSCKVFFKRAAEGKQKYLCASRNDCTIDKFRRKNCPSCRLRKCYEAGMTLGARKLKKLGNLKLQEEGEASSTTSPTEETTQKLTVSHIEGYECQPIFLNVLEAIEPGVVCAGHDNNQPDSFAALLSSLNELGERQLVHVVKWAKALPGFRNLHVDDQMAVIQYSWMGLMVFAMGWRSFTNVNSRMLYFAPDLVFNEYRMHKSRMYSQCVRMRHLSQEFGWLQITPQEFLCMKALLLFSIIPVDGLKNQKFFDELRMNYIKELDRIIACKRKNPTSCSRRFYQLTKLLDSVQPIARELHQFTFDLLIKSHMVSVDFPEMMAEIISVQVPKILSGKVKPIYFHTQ
Assay: VCAP AR Degradation Assay
Assay type: cell-based
Conditions: for Y (AR degradation efficiency, % of DMSO control): class symbols *; for DC50: class symbols A-C, read-out: DC50
Method in brief: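 AR protein in lysates quantified by sandwich ELISA after 24 h exposure of VCaP cells at 37 °C to 10 concentrations (1:3 steps, 5 μM top, final). Four-parameter logistic fit of percent-of-DMSO levels gave DC50 (50% degradation), EC50 and minimal AR level Y.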

SMILES	Y (AR degradation efficiency, % of DMSO control)	DC50
CCc1cc(N2C(=S)N(c3cnc(C#N)c(C(F)(F)F)c3)C(=O)C2(C)C)ccc1OCCN1CCN([C@H](C)C(=O)Nc2cc(Cl)cc(NC3CCC(=O)NC3=O)c2)CC1 (stereo partly drawn) [Example 191, (2R)-N-(3-chloro-5-(2,6-dioxopiperidin-3-ylamino)phenyl)-2-(4-(2-(4-(3-(6-cyano-5-(trifluoromethyl)pyridin-3-yl)-5,5-dimethyl-4-oxo-2-thioxoimidazolidin-1-yl)-2-ethylphenoxy)ethyl)piperazin-1-yl)propanamide]	* (0<Y<=25%)	< 100 nM
CCc1cc(N2C(=S)N(c3ccc(C#N)c(C(F)(F)F)c3)C(=O)C2(C)C)ccc1OCCN1C[C@H](C)N(CC(=O)Nc2cc(Cl)cc(NC3CCC(=O)NC3=O)c2)C[C@@H]1C (stereo partly drawn) [Example 126, N-(3-chloro-5-(2,6-dioxopiperidin-3-ylamino)phenyl)-2-((2S,5S)-4-(2-(4-(3-(4-cyano-3-(trifluoromethyl)phenyl)-5,5-dimethyl-4-oxo-2-thioxoimidazolidin-1-yl)-2-ethylphenoxy)ethyl)-2,5-dimethylpiperazin-1-yl)acetamide]	* (0<Y<=25%)	< 100 nM
CCc1cc(N2C(=S)N(c3cnc(C#N)c(C(F)(F)F)c3)C(=O)C2(C)C)ccc1OCCN1CCN(CC(=O)Nc2cccc(NC3CCC(=O)NC3=O)c2)[C@H](C(F)(F)F)C1 (stereo partly drawn) [Example 201, 2-((S)-4-(2-(4-(3-(6-cyano-5-(trifluoromethyl)pyridin-3-yl)-5,5-dimethyl-4-oxo-2-thioxoimidazolidin-1-yl)-2-ethylphenoxy)ethyl)-2-(trifluoromethyl)piperazin-1-yl)-N-(3-(2,6-dioxopiperidin-3-ylamino)phenyl)acetamide]	* (0<Y<=25%)	< 100 nM
C[C@@H]1CN(CCOc2ccc(N3C(=S)N(c4cnc(C#N)c(C(F)(F)F)c4)C(=O)C3(C)C)cc2C(C)(F)F)CCN1CC(=O)Nc1cc(Cl)cc(NC2CCC(=O)NC2=O)c1 (stereo partly drawn) [Example 149, N-(3-chloro-5-(2,6-dioxopiperidin-3-ylamino)phenyl)-2-((R)-4-(2-(4-(3-(6-cyano-5-(trifluoromethyl)pyridin-3-yl)-5,5-dimethyl-4-oxo-2-thioxoimidazolidin-1-yl)-2-(1,1-difluoroethyl)phenoxy)ethyl)-2-methylpiperazin-1-yl)acetamide]	* (0<Y<=25%)	< 100 nM
CC(C)c1cc(N2C(=S)N(c3ccc(C#N)c(C(F)(F)F)c3)C(=O)C2(C)C)ccc1OCCN1CCN(CC(=O)Nc2cc(Cl)cc(NC3CCC(=O)NC3=O)c2)CC1 (centres unmarked) [Example 94, N-(3-chloro-5-(2,6-dioxopiperidin-3-ylamino)phenyl)-2-(4-(2-(4-(3-(4-cyano-3-(trifluoromethyl)phenyl)-5,5-dimethyl-4-oxo-2-thioxoimidazolidin-1-yl)-2-isopropylphenoxy)ethyl)piperazin-1-yl)acetamide]	** (25%<Y<=35%)	100 to 500 nM
CC1(C)C(=O)N(c2cnc(C#N)c(C(F)(F)F)c2)C(=S)N1c1ccc(OCCN2CCN(CC(=O)Nc3cccc(NC4CCC(=O)NC4=O)c3)CC2)cc1 (centres unmarked) [Example 2, hydrochloride]	** (25%<Y<=35%)	< 100 nM
CC1(C)C(=O)N(c2cnc(C#N)c(C(F)(F)F)c2)C(=S)N1c1ccc(OCCN2CCN(CC(=O)Nc3cc(F)cc(NC4CCC(=O)NC4=O)c3)CC2)c(CC(F)F)c1 (centres unmarked) [Example 68, 2-(4-(2-(4-(3-(6-cyano-5-(trifluoromethyl)pyridin-3-yl)-5,5-dimethyl-4-oxo-2-thioxoimidazolidin-1-yl)-2-(2,2-difluoroethyl)phenoxy)ethyl)piperazin-1-yl)-N-(3-(2,6-dioxopiperidin-3-ylamino)-5-fluorophenyl)acetamide]	* (0<Y<=25%)	< 100 nM
CCc1cc(N2C(=S)N(c3cnc(C#N)c(C(F)(F)F)c3)C(=O)C2(C)C)ccc1OCCN1C[C@H]2CC[C@@H]1CN2CC(=O)Nc1cccc(NC2CCC(=O)NC2=O)c1 (stereo partly drawn) [Example 183, 2-((1R,4R)-5-(2-(4-(3-(6-cyano-5-(trifluoromethyl)pyridin-3-yl)-5,5-dimethyl-4-oxo-2-thioxoimidazolidin-1-yl)-2-ethylphenoxy)ethyl)-2,5-diazabicyclo[2.2.2]octan-2-yl)-N-(3-(2,6-dioxopiperidin-3-ylamino)phenyl)acetamide]	** (25%<Y<=35%)	100 to 500 nM
CCc1cc(N2C(=S)N(c3cnc(C#N)c(C(F)(F)F)c3)C(=O)C2(C)C)ccc1OCCN1CCN([C@@H](C)C(=O)Nc2cc(F)cc(NC3CCC(=O)NC3=O)c2)CC1 (stereo partly drawn) [Example 116, (2S)-2-(4-(2-(4-(3-(6-cyano-5-(trifluoromethyl)pyridin-3-yl)-5,5-dimethyl-4-oxo-2-thioxoimidazolidin-1-yl)-2-ethylphenoxy)ethyl)piperazin-1-yl)-N-(3-(2,6-dioxopiperidin-3-ylamino)-5-fluorophenyl)propanamide]	* (0<Y<=25%)	< 100 nM
C[C@@H]1CN(CCOc2ccc(N3C(=S)N(c4ccc(C#N)c(C(F)(F)F)c4)C(=O)C3(C)C)cc2C2CC2)C[C@H](C)N1CC(=O)Nc1cccc(N[C@@H]2CCC(=O)NC2=O)c1 [Example 288, 2-((2R,6S)-4-(2-(4-(3-(4-cyano-3-(trifluoromethyl)phenyl)-5,5-dimethyl-4-oxo-2-thioxoimidazolidin-1-yl)-2-cyclopropylphenoxy)ethyl)-2,6-dimethylpiperazin-1-yl)-N-(3-((R)-2,6-dioxopiperidin-3-ylamino)phenyl)acetamide]	* (0<Y<=25%)	< 100 nM
CCc1cc(N2C(=S)N(c3ccc(C#N)c(C(F)(F)F)c3)C(=O)C2(C)C)ccc1OCCN1CCN(CC(=O)Nc2cccc(NC3CCC(=O)NC3=O)c2)C2(CC2)C1 (centres unmarked) [Example 98, 2-(7-(2-(4-(3-(4-cyano-3-(trifluoromethyl)phenyl)-5,5-dimethyl-4-oxo-2-thioxoimidazolidin-1-yl)-2-ethylphenoxy)ethyl)-4,7-diazaspiro[2.5]octan-4-yl)-N-(3-(2,6-dioxopiperidin-3-ylamino)phenyl)acetamide]	** (25%<Y<=35%)	< 100 nM
CCc1cc(N2C(=S)N(c3cnc(C#N)c(C(F)(F)F)c3)C(=O)C2(C)C)ccc1OCCN1CCN(C2(C(=O)Nc3cc(Cl)cc(NC4CCC(=O)NC4=O)c3)CC2)CC1 (centres unmarked) [Example 165, N-(3-chloro-5-(2,6-dioxopiperidin-3-ylamino)phenyl)-1-(4-(2-(4-(3-(6-cyano-5-(trifluoromethyl)pyridin-3-yl)-5,5-dimethyl-4-oxo-2-thioxoimidazolidin-1-yl)-2-ethylphenoxy)ethyl)piperazin-1-yl)cyclopropanecarboxamide]	* (0<Y<=25%)	< 100 nM
C[C@@H]1CN(CCOc2ccc(N3C(=S)N(c4ccc(C#N)c(C(F)(F)F)c4)C(=O)C3(C)C)cc2C2CC2)C[C@H](C)N1CC(=O)Nc1cccc(NC2CCC(=O)NC2=O)c1 (stereo partly drawn) [Example 204, 2-((2S,6R)-4-(2-(4-(3-(4-cyano-3-(trifluoromethyl)phenyl)-5,5-dimethyl-4-oxo-2-thioxoimidazolidin-1-yl)-2-cyclopropylphenoxy)ethyl)-2,6-dimethylpiperazin-1-yl)-N-(3-(2,6-dioxopiperidin-3-ylamino)phenyl)acetamide]	* (0<Y<=25%)	< 100 nM
CCc1cc(N2C(=S)N(c3ccc(C#N)c(C(F)(F)F)c3)C(=O)C2(C)C)ccc1O[C@H](C)CN1C[C@@H](C)N(CC(=O)Nc2cccc(NC3CCC(=O)NC3=O)c2)[C@@H](C)C1 (single isomer, unassigned) [Example 241]	* (0<Y<=25%)	100 to 500 nM
CCc1cc(N2C(=S)N(c3cnc(C#N)c(C(F)(F)F)c3)C(=O)C23CCC3)ccc1OCCN1CCN(C2(C(=O)Nc3cccc(NC4CCC(=O)NC4=O)c3)CC2)CC1 (centres unmarked) [Example 188, 1-(4-(2-(4-(7-(6-cyano-5-(trifluoromethyl)pyridin-3-yl)-8-oxo-6-thioxo-5,7-diazaspiro[3.4]octan-5-yl)-2-ethylphenoxy)ethyl)piperazin-1-yl)-N-(3-(2,6-dioxopiperidin-3-ylamino)phenyl)cyclopropanecarboxamide]	* (0<Y<=25%)	< 100 nM
CCC(C)c1cc(N2C(=S)N(c3cnc(C#N)c(C(F)(F)F)c3)C(=O)C2(C)C)ccc1OCCN1CCN(CC(=O)Nc2cccc(NC3CCC(=O)NC3=O)c2)CC1 (centres unmarked) [Example 37, hydrochloride]	*** (35%<Y<50%)	500 to 1000 nM
